Measured values reported in US20170065952A1, “PICKERING EMULSION FORMULATIONS” (THE UNIVERSITY OF BIRMINGHAM, priority 2014, published 2017).
One block for each compound: values may come before it.

Columns and labels:
[1] = Release of lipophilic active B (DMP) from O/W emulsion by dialysis into external water, UV-Vis; format: physicochemical; conditions: O/W emulsion (tripalmitin particles 2J, WPI), after 2 days of storage
Method: Solid lipid particles were prepared according to Example 2J. Tripalmitin matrix contained lipophilic active A (Sudan III) and were stabilised in aqueous dispersion by WPI.
O/W emulsions were prepared according to Example 4. A model lipophilic active B (DMP-dimethyl phthalate) was added to the sunflower oil included phase.
Known quantity of the O/W emulsion (e.g. 10 g) was placed inside a pre-hydrated cellulose tube and dialysed to a known quantity of distilled water (e.g. 100 g), termed “external” water/aqueous phase. An aliquot (ca. 1 mL) of the external water was taken at time intervals, pressed through a syringe filter (0.2 μm pore size) and analysed using UV-Vis spectroscopy (at λ=290 nm). Using previously obtained calibration line and the partitioning (sunflower oil/water) data of DMP, the concentration of the released active B was calculated.

[2] = Release of lipophilic active (Sudan III) from W/O emulsion into external oil phase, UV-Vis; format: physicochemical; conditions: W/O emulsion Example 3C (tripalmitin particles 2C, Tween 20, sunflower oil continuous phase); burst release
Method: (§1) Solid lipid particles were prepared according to Example 2C. Tripalmitin particles contained the lipophilic active (Sudan III) and were stabilised in the aqueous dispersion by Tween™ 20. After preparation the excess surfactant was dialysed off to distilled water.

[3] = Release of lipophilic active A (Sudan III) from O/W emulsion into external oil phase, UV-Vis; format: physicochemical; conditions: O/W emulsion (tripalmitin particles 2J, WPI, sunflower oil), observation period of 4 days
Method: Known quantity of the O/W emulsion (e.g. 40 g) was placed in the beaker and gently topped up with a known quantity of sunflower oil (e.g. 50 g), termed “external” oil phase. An aliquot (ca. 1 mL) of the external oil phase was taken at time intervals, pressed through a syringe filter (0.2 μm pore size) and analysed using UV-Vis spectroscopy (at λ=510 nm). Using previously obtained calibration line, the concentration of the released active A was calculated.

[4] = Method: Known quantity of the W/O emulsion (e.g. 45 g) was gently placed on the top of a known quantity of distilled water (e.g. 70 g) termed “external” water/aqueous phase. Calibrated conductivity probe was placed in the external aqueous phase and readings were taken on daily intervals.
as §1
W/O emulsions were prepared according to Example 3C, 3D and 3E. Hydrophilic active (NaCl) was added to the aqueous included phase and sunflower or silicone or mineral oils were used as the continuous phase.
The release of NaCl was measured as per Example 5.

SMILES: COC(=O)c1ccccc1C(=O)OC [DMP, dimethyl phthalate]
release of active B from the dispersed sunflower oil phase [1]: 100%

time of storage to complete release of lipophilic active [2]: ≤ 10 h
release of active A from the lipid particles [3]: below 1%
SMILES: Oc1ccc2ccccc2c1N=Nc1ccc(N=Nc2ccccc2)cc1 [Sudan III]

SMILES: [Cl-].[Na+] [NaCl]
release of hydrophilic active to external water phase ([4]; W/O emulsion Example 3C, sunflower oil, over 17 days): very small
release of hydrophilic active upon heating ([4]; W/O emulsion, heating to 40° C., fat crystals at interface melt): all dispersed water phase with NaCl is delivered to the external water phase
release of the internal water phase with NaCl ([4]; water-in-mineral-oil emulsions (Example 3D), partially sintered particles): lower than for the non-sintered silicone oil emulsions and higher than the sintered sunflower oil emulsions
release of NaCl to external water phase ([4]; water-in-silicone-oil emulsions (Example 3E), non-sintered particles): Relatively high release
